# Laboratory results reported in US20260022116A1, “IMIDAZOPYRIDINE COMPOUNDS, PREPARATION THEREOF AND THERAPEUTIC USES THEREOF” (SANOFI, priority 2022, published 2026).
# Structures can show the parent of a compound that is named as a salt.
# Columns and labels:
# ERK5 [1] = biological target: T1, ERK5 (Homo sapiens, UniProt Q13164); experiment: cell-based
# Target sequence in this assay (Q13164 whole entry): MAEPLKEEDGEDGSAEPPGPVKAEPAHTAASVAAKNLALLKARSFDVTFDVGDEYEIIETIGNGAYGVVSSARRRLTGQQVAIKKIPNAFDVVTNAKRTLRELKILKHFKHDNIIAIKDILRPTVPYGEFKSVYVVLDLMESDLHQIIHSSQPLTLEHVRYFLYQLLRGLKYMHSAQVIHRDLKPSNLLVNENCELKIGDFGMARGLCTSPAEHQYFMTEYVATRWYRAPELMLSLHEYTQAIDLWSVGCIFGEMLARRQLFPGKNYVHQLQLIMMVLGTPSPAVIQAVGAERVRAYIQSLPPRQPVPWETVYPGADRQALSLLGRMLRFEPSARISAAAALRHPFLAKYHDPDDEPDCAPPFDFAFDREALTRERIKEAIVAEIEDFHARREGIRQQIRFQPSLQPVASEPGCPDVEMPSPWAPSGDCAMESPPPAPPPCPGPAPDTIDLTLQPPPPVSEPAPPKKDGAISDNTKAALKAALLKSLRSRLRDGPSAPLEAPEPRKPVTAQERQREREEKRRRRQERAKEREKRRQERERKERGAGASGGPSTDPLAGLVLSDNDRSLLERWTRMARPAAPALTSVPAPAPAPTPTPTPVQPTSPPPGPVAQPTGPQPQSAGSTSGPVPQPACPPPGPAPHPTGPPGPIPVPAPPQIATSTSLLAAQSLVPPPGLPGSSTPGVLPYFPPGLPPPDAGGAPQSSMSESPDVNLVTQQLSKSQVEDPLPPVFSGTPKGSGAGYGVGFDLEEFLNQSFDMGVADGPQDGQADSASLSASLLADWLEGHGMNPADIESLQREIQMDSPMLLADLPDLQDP
# Experimental: (§1) Two assays were performed to assess the ERK5 inhibitory activity of compounds of the Examples, a cell-based assay and a cell-free biochemical assay.
# The renal cancer cell line SN12C was transduced by a lentivirus pGreenFire1 MEF2 EF1 Neo (ref TR030VA-N) from SBI using standard infection protocol. pGreenFire1 MEF2 EF1 Neo allows the expression of luciferase gene under the control of minimal promoter with MEF2 transcriptional response elements. Cells harboring the reporter construct were selected by geneticin treatment. The selected cells were then transposed by a piggyback based plasmid pCM4007 allowing the expression of constitutively activated MEK5DD under control of TREG3 promoter, a doxycycline regulated promoter. Transposed cells were selected by puromycin treatment. Upon doxycycline treatment (1 μg/ml) MEK5DD was expressed. MEK5DD activates ERK5 that phosphorylates MEF2C protein. Activated MEF2C protein can bind to its transcriptional response elements. Then the luciferase is expressed. In a 96-well plate (96F nuncleon ref137101 thermofisher), 50,000 cells were inoculated in 142.5 μl of RPMI medium containing 10% fetal calf serum, 1% glutamine, and 1 μg/ml doxycycline. […] The luciferase activity was measured using the Kit Bright Glo Luminescent Cell Assay Cat E2610 (Promega) according to the manufacturer's protocol. Luminescence was determined using 0.2 second reading/well using a Tecan SPARK. IC50 values were calculated using XLFIT5 for Microsoft Excel using method 205.
# ERK5 [2] = biological target: T1, ERK5; experiment: biochemical
# Target sequence in this assay (Q13164 55-347 limits assumed): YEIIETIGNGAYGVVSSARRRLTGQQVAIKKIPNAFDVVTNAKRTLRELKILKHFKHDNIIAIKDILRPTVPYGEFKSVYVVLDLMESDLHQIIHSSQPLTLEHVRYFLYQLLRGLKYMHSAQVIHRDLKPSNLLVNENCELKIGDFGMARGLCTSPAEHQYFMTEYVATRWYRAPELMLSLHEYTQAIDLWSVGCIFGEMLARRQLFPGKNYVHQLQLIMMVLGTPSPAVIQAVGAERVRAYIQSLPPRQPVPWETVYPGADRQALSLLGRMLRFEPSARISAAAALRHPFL
# Experimental: as §1
# An assay was performed to measure the capacity of each compound to inhibit ERK5 enzymatic activity. Compound potency was evaluated by Time-Resolved Forster Resonance Energy Transfer (FRET system). […] A mixture of 1 mM ATP and 1 μM biotinylated synthetic peptide was added (Biosyntan GmbH). This synthetic peptide represents amino acids 30-52 of Eukaryotic translation initiation factor 4E-binding protein 1 (see, e.g., the sequence under accession No. NP_004086.1) biotinylated at the N-terminus.
SMILES,IC50 (ERK5 [1]) [nM],IC50 (ERK5 [2]) [nM]
"Nc1cc(OC(F)(F)F)ccc1C(=O)N1CCC(c2c(F)cnc3[nH]c(C45CC(C(F)(F)F)(C4)C5)nc23)CC1 [Example 432, [2-amino-4-(trifluoromethoxy)phenyl]-[4-[6-fluoro-2-[3-(trifluoromethyl)-1-bicyclo[1.1.1]pentanyl]-3H-imidazo[4,5-b]pyridin-7-yl]-1-piperidyl]methanone]",16 to 43,3870
"O=C(c1ccc(S(F)(F)(F)(F)F)cc1)N1CCC(c2c(F)cnc3[nH]c(C4CCOC4)nc23)CC1 (single isomer, unassigned) [Example 400, [4-[6-fluoro-2-[tetrahydrofuran-3-yl]-3H-imidazo[4,5-b]pyridin-7-yl]-1-piperidyl]-[4-(pentafluoro-λ^6-sulfanyl)phenyl]methanone]",104 to 165,684
"CS(=O)(=O)c1ccc(C(=O)N2CCC(c3ccnc4[nH]c(C5CCOCC5)nc34)CC2)c(N)c1 [Example 84, (2-amino-4-methylsulfonyl-phenyl)-[4-(2-tetrahydropyran-4-yl-3H-imidazo[4,5-b]pyridin-7-yl)-1-piperidyl]methanone]",> 10000,26800
"O=C(c1cn(-c2ccc(F)cc2)cn1)N1CCC(c2ccnc3[nH]c(C4CCOCC4)nc23)CC1 [Example 120, [1-(4-fluorophenyl)imidazol-4-yl]-[4-(2-tetrahydropyran-4-yl-3H-imidazo[4,5-b]pyridin-7-yl)-1-piperidyl]methanone]",> 10000,6600
"Nc1cc(S(F)(F)(F)(F)F)ccc1C(=O)N1CCC(c2ccnc3[nH]c(C4CCOC4)nc23)CC1 (single isomer, unassigned) [Example 308, [2-amino-4-(pentafluoro-λ^6-sulfanyl)phenyl]-[4-[2-[tetrahydrofuran-3-yl]-3H-imidazo[4,5-b]pyridin-7-yl]-1-piperidyl]methanone]",99,97
"Nc1cc(OC(F)(F)F)ccc1C(=O)N1CCC(c2ccnc3[nH]c(CC4CCOC4)nc23)CC1 (single isomer, unassigned) [Example 2, [2-Amino-4-(trifluoromethoxy)phenyl]-[4-[2-(tetrahydrofuran-3-ylmethyl)-3H-imidazo[4,5-b]pyridin-7-yl]-1-piperidyl]methanone]",134,140
"Nc1cc(OC(F)(F)F)ccc1C(=O)N1CCC(c2ccnc3[nH]c(C4CCN(CC(F)F)CC4)nc23)CC1 [Example 37, [2-Amino-4-(trifluoromethoxy)phenyl]-[4-[2-[1-(2,2-difluoroethyl)-4-piperidyl]-3H-imidazo[4,5-b]pyridin-7-yl]-1-piperidyl]methanone]",47,47
"Nc1nc2ccccc2nc1C(=O)N1CCC(c2ccnc3[nH]c(C4CCOCC4)nc23)CC1 [Example 116, (3-aminoquinoxalin-2-yl)-[4-(2-tetrahydropyran-4-yl-3H-imidazo[4,5-b]pyridin-7-yl)-1-piperidyl]methanone]",> 10000,16400
"O=C(c1ccc(C(F)(F)F)c(=O)[nH]1)N1CCC(c2ccnc3[nH]c(C4CCOCC4)nc23)CC1 [Example 53, 6-[4-(2-Tetrahydropyran-4-yl-3H-imidazo[4,5-b]pyridin-7-yl)piperidine-1-carbonyl]-3-(trifluoromethyl)-1H-pyridin-2-one, hydrochloride]",> 10000,262
"O=C(c1ccc(S(F)(F)(F)(F)F)cc1)N1CCC(c2ccnc3[nH]c(C4CCCO4)nc23)CC1 (single isomer, unassigned) [Example 298, [4-(pentafluoro-λ^6-sulfanyl)phenyl]-[4-[2-[tetrahydrofuran-2-yl]-3H-imidazo[4,5-b]pyridin-7-yl]-1-piperidyl]methanone]",163,166
"Nc1c(C(=O)N2CCC(c3ccnc4[nH]c(C5CCOCC5)nc34)CC2)cnn1-c1ccccc1 [Example 105, (5-amino-1-phenyl-pyrazol-4-yl)-[4-(2-tetrahydropyran-4-yl-3H-imidazo[4,5-b]pyridin-7-yl)-1-piperidyl]methanone]",6640,6910
